Assay results as given in PubChem BioAssay AID248 (DTP/NCI, 2004).
Several values for one entry are separate records, joined by “and”; a condition that tells them apart may be missing. Equal values may be shown once. Inconclusive results and toxic doses are left out. Rule as the data show it: active = T/C of 150% or more; inactive = T/C below 125%.

Test system: L1210 leukemia ip in BDF1 mice, survival T/C
Experiment: NCI In Vivo Anticancer Drug Screen. Data for tumor model L1210 Leukemia (intraperitoneal) in B6D2F1 (BDF1) mice
Conditions: endpoint: mean survival time, higher = longer survival
Summary of the method: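 Antitumor effect is assessed in tumor-bearing animals. Survival in the compound arm is compared with a vehicle-dosed control arm and expressed as their quotient.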

[1] = dose: 100.0 mg/kg/injection, schedule: Q01DX001 (ip), vehicle: saline
[2] = dose: 200.0 mg/kg/injection, schedule: Q01DX001 (ip), vehicle: saline
[3] = dose: 400.0 mg/kg/injection, schedule: Q01DX001 (ip), vehicle: saline
[4] = dose: 100.0 mg/kg/injection, schedule: Q04DX003 (ip), vehicle: saline
[5] = dose: 200.0 mg/kg/injection, schedule: Q04DX003 (ip), vehicle: saline
[6] = dose: 400.0 mg/kg/injection, schedule: Q04DX003 (ip), vehicle: saline
[7] = dose: 50.0 mg/kg/injection, schedule: Q01DX009 (ip), vehicle: saline with Tween-80
[8] = dose: 100.0 mg/kg/injection, schedule: Q01DX009 (ip), vehicle: saline with Tween-80
[9] = dose: 200.0 mg/kg/injection, schedule: Q01DX009 (ip), vehicle: saline with Tween-80
[10] = dose: 400.0 mg/kg/injection, schedule: Q01DX009 (ip), vehicle: saline with Tween-80
[11] = dose: 100.0 mg/kg/injection, schedule: Q04DX003 (ip), vehicle: Klucel (hydroxypropylcellulose) (HPC)
[12] = dose: 200.0 mg/kg/injection, schedule: Q04DX003 (ip), vehicle: Klucel (hydroxypropylcellulose) (HPC)
[13] = dose: 400.0 mg/kg/injection, schedule: Q04DX003 (ip), vehicle: Klucel (hydroxypropylcellulose) (HPC)
[14] = dose: 100.0 mg/kg/injection, schedule: Q04DX002 (ip), vehicle: saline
[15] = dose: 200.0 mg/kg/injection, schedule: Q04DX002 (ip), vehicle: saline
[16] = dose: 400.0 mg/kg/injection, schedule: Q04DX002 (ip), vehicle: saline
[17] = dose: 100.0 mg/kg/injection, schedule: Q04DX002 (ip), vehicle: Klucel (hydroxypropylcellulose) (HPC)
[18] = dose: 200.0 mg/kg/injection, schedule: Q04DX002 (ip), vehicle: Klucel (hydroxypropylcellulose) (HPC)
[19] = dose: 400.0 mg/kg/injection, schedule: Q04DX002 (ip), vehicle: Klucel (hydroxypropylcellulose) (HPC)
[20] = dose: 100.0 mg/kg/injection, schedule: Q01DX009 (ip), vehicle: Klucel (hydroxypropylcellulose) (HPC)
[21] = dose: 200.0 mg/kg/injection, schedule: Q01DX009 (ip), vehicle: Klucel (hydroxypropylcellulose) (HPC)
[22] = dose: 25.0 mg/kg/injection, schedule: Q01DX009 (ip), vehicle: Klucel (hydroxypropylcellulose) (HPC)
[23] = dose: 50.0 mg/kg/injection, schedule: Q01DX009 (ip), vehicle: Klucel (hydroxypropylcellulose) (HPC)
[24] = dose: 100.0 mg/kg/injection, schedule: Q04DX002 (ip), vehicle: saline with Tween-80
[25] = dose: 200.0 mg/kg/injection, schedule: Q04DX002 (ip), vehicle: saline with Tween-80
[26] = dose: 400.0 mg/kg/injection, schedule: Q04DX002 (ip), vehicle: saline with Tween-80

Measured: T/C

NC1(C(=O)O)C2CC3CC(C2)CC1C3 (configuration not stated)
inactive: dose: 50.0 mg/kg/injection, schedule: Q01DX009 (ip), vehicle: other 100 % of control | dose: 100.0 mg/kg/injection, schedule: Q01DX009 (ip), vehicle: other 105 % of control | dose: 100.0 mg/kg/injection, schedule: Q04DX003 (ip), vehicle: alcohol 96 % of control | dose: 200.0 mg/kg/injection, schedule: Q01DX009 (ip), vehicle: other 92 % of control | dose: 200.0 mg/kg/injection, schedule: Q04DX003 (ip), vehicle: alcohol 95 % of control

CNC(=O)Oc1ccc(C(=O)OCCO)cc1
inactive: [1] 90 % of control | [2] 88 % of control | [3] 88 % of control

CCOC(=O)NC(=O)NC(=O)OCC
inactive: dose: 75.0 mg/kg/injection, schedule: Q01DX009 (ip), vehicle: saline sonified 92 % of control | [4] 107 % of control | dose: 150.0 mg/kg/injection, schedule: Q01DX009 (ip), vehicle: saline sonified 94 % of control | [5] 119 % of control | dose: 300.0 mg/kg/injection, schedule: Q01DX009 (ip), vehicle: saline sonified 96 % of control | [6] 104 % of control

Cc1cc(OCCOC(=O)Nc2cccc(C(F)(F)F)c2)cc(C)c1Cl
inactive: dose: 25.0 mg/kg/injection, schedule: Q01DX009 (ip), vehicle: saline with Tween-80 102 % of control | [7] 102 % of control | [8] 98 % of control and 118 % of control | [9] 93 % of control | [10] 91 % of control

O=c1cc(NCc2c(Cl)cccc2[N+](=O)[O-])[nH]c(=O)[nH]1
inactive: [11] 98 % of control | [12] 95 % of control | [13] 95 % of control

O=CN(Cc1cnccn1)Cc1cnccn1
inactive: dose: 100.0 mg/kg/injection, schedule: Q01DX009 (ip), vehicle: saline 96 % of control | [4] 93 % of control | dose: 200.0 mg/kg/injection, schedule: Q01DX009 (ip), vehicle: saline 98 % of control | [5] 96 % of control | dose: 400.0 mg/kg/injection, schedule: Q01DX009 (ip), vehicle: saline 94 % of control | [6] 96 % of control

COc1ccc(/C=N/NC(=O)c2ccc(N)cc2)c(OC)c1
inactive: [14] 101 % of control | [15] 108 % of control | [16] 97 % of control

CCOC(=O)c1c(-c2ccc([N+](=O)[O-])cc2)cn(-c2ccc(OC)cc2)c1C
inactive: [17] 91 % of control | [18] 87 % of control | [19] 94 % of control

CN(C)CCCCN(C)CCCN(C)C
inactive: [1] 114 % of control | [2] 102 % of control | [3] 98 % of control

CC(C)CCOC(=O)C1OC1(C)c1ccccc1 (configuration not stated)
inactive: [14] 101 % of control | [15] 93 % of control | [16] 112 % of control

O=C1NC2C=CC1/C=C\C=C/2 (configuration not stated)
inactive: [14] 96 % of control | [15] 86 % of control

Cc1ccc(NC(=O)OCC2CC3C=CC2C3)cc1 (configuration not stated)
inactive: [20] 98 % of control | [21] 102 % of control | dose: 400.0 mg/kg/injection, schedule: Q01DX009 (ip), vehicle: Klucel (hydroxypropylcellulose) (HPC) 100 % of control

[O-]/[N+](=C\c1ccc(OCc2ccccc2)cc1)c1ccccc1
inactive: dose: 50.0 mg/kg/injection, schedule: Q01DX001 (ip), vehicle: saline 102 % of control | [1] 102 % of control | [2] 108 % of control | [3] 90 % of control

Nc1nc2nc3c(nc2c(=O)[nH]1)CN(c1ccc(C(=O)NC(CCC(=O)O)C(=O)O)cc1)C3=O (configuration not stated)
inactive: [8] 93 % of control | [9] 95 % of control

O=C(O)C(Nc1ccc(Cc2ccc(NC(C(=O)O)c3ccccc3)cc2)cc1)c1ccccc1 (configuration not stated)
inactive: [17] 100 % of control | [18] 103 % of control | [19] 92 % of control

CCSc1ncc2cnccn12
inactive: dose: 25.0 mg/kg/injection, schedule: Q01DX009 (ip), vehicle: water 91 % of control | dose: 50.0 mg/kg/injection, schedule: Q01DX009 (ip), vehicle: water 100 % of control | dose: 100.0 mg/kg/injection, schedule: Q04DX003 (ip), vehicle: water 91 % of control

Clc1cc(Cl)c(OCC#CI)c(Cl)c1Cl
inactive: dose: 6.25 mg/kg/injection, schedule: Q01DX009 (ip), vehicle: Klucel (hydroxypropylcellulose) (HPC) 100 % of control | dose: 12.5 mg/kg/injection, schedule: Q01DX009 (ip), vehicle: Klucel (hydroxypropylcellulose) (HPC) 97 % of control | [22] 92 % of control | [23] 96 % of control | dose: 75.0 mg/kg/injection, schedule: Q01DX009 (ip), vehicle: Klucel (hydroxypropylcellulose) (HPC) 98 % of control | dose: 115.0 mg/kg/injection, schedule: Q01DX009 (ip), vehicle: Klucel (hydroxypropylcellulose) (HPC) 94 % of control | dose: 170.0 mg/kg/injection, schedule: Q01DX009 (ip), vehicle: Klucel (hydroxypropylcellulose) (HPC) 93 % of control

S=c1[nH]c2nc(Cl)c(Cl)nc2[nH]1
inactive: [7] 95 % of control | [8] 91 % of control | dose: 100.0 mg/kg/injection, schedule: Q04DX003 (ip), vehicle: saline with Tween-80 97 % of control | [9] 100 % of control | dose: 200.0 mg/kg/injection, schedule: Q04DX003 (ip), vehicle: saline with Tween-80 102 % of control

CC(C(O)c1ccncc1)[N+](=O)[O-] (configuration not stated)
inactive: [24] 92 % of control | [25] 107 % of control | [26] 92 % of control

O=P1(c2ccccc2)CCc2[nH]c3ccc(Cl)cc3c2C1 (configuration not stated)
inactive: [11] 100 % of control | [12] 107 % of control | [13] 112 % of control

C=C(Cl)CN(CCCC(=O)O)c1cccc(OC)c1
inactive: [8] 89 % of control | dose: 100.0 mg/kg/injection, schedule: Q04DX003 (ip), vehicle: other 100 % of control | [9] 95 % of control | dose: 200.0 mg/kg/injection, schedule: Q04DX003 (ip), vehicle: other 98 % of control | [10] 97 % of control | dose: 400.0 mg/kg/injection, schedule: Q04DX003 (ip), vehicle: other 100 % of control

O=P(Nc1ccccc1)(N1CCCCC1)N1CCCCC1
inactive: [24] 101 % of control | [25] 101 % of control | [26] 108 % of control

O=C(O)c1c(Cl)c(Cl)c(Cl)c(Cl)c1C(=O)Nc1cccc(C(F)(F)F)c1
inactive: [20] 100 % of control | [11] 94 % of control | [21] 97 % of control | [12] 100 % of control | [13] 105 % of control

COc1ccc(-c2cccc(-c3ccccc3)n2)cc1
inactive: dose: 12.5 mg/kg/injection, schedule: Q04DX003 (ip), vehicle: Klucel (hydroxypropylcellulose) (HPC) 91 % of control | [22] 106 % of control | dose: 25.0 mg/kg/injection, schedule: Q04DX003 (ip), vehicle: Klucel (hydroxypropylcellulose) (HPC) 98 % of control | [23] 100 % of control | dose: 50.0 mg/kg/injection, schedule: Q04DX003 (ip), vehicle: Klucel (hydroxypropylcellulose) (HPC) 98 % of control | [20] 89 % of control | [11] 96 % of control

NC(=O)c1ccc(N)nc1
inactive: dose: 22.0 mg/kg/injection, schedule: Q01DX001 (ip), vehicle: carboxymethylcellulose (CMC) 104 % of control and 106 % of control | dose: 25.0 mg/kg/injection, schedule: Q01DX001 (ip), vehicle: carboxymethylcellulose (CMC) 106 % of control | dose: 33.0 mg/kg/injection, schedule: Q01DX001 (ip), vehicle: carboxymethylcellulose (CMC) 109 % of control and 114 % of control | dose: 50.0 mg/kg/injection, schedule: Q01DX001 (ip), vehicle: carboxymethylcellulose (CMC) 111 % of control and 112 % of control | dose: 75.0 mg/kg/injection, schedule: Q01DX001 (ip), vehicle: carboxymethylcellulose (CMC) 109 % of control and 90 % of control | dose: 100.0 mg/kg/injection, schedule: Q01DX001 (ip), vehicle: carboxymethylcellulose (CMC) 95 % of control
